Measurements as given in patent US9012651B2, “TRPV3 modulators” (AbbVie Inc., priority 2011, dated 2015).

Target: human TRPV3 receptors (Homo sapiens (Human), UniProt Q8NET8)
Test: Calcium flux assay (FLIPR TETRA), inhibition of the 2-APB response
Format: cell-based
Conditions: recombinant HEK293 cells stably expressing TRPV3, Calcium-4 dye, 2-APB at its EC80
Protocol: (i) In Vitro Methods-Calcium Flux Assays:
Experiments were conducted using the FLIPR^TETRA®. On the day prior to the experiment, recombinant HEK293 cells that stably express human and mouse TRPV3 were removed from tissue culture flasks and plated in growth medium at 20,000 cells/well into black-walled clear-bottom 384-well Biocoat™ poly-D-lysine assay plates (BD Biosciences, Bedford, Mass.) using a Multidrop® dispenser (ThermoScientific, Waltham, Mass.). […] Cells were incubated for 90-120 minutes in the dark. Compounds were dissolved in DMSO to prepare a 10 mM stock solution. The intensity of the fluorescence was captured and digitally transferred to an interfaced PC. The peak increase in fluorescence over baseline (relative fluorescence units) was calculated and expressed as the percentage of the maximal 2-APB (2-aminoethoxyldiphenyl borate) response (in the absence of compound).

human TRPV3 receptors, sequence (Q8NET8 whole entry): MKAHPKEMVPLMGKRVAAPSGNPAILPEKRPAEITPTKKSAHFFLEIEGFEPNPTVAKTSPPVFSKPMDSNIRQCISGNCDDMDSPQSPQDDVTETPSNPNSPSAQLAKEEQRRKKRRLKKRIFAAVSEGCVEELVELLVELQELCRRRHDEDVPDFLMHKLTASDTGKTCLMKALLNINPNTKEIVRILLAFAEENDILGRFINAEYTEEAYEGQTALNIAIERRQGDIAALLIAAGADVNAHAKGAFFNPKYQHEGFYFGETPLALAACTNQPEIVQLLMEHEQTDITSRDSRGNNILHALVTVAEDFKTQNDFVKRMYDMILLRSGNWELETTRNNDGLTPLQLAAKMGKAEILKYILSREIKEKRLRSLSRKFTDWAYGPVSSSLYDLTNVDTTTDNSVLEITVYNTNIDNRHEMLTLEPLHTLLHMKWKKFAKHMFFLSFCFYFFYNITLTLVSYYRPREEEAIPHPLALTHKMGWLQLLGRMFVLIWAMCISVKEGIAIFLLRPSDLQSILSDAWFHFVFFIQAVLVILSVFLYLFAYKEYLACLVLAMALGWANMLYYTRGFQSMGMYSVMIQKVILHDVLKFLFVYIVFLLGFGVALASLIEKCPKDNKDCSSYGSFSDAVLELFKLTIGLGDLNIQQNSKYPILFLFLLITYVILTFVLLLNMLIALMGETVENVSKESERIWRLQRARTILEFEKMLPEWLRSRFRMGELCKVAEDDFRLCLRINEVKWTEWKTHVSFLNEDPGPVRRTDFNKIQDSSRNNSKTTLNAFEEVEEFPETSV

IC50 [µM]	Compound
> 20	OC[C@H](NCc1ccnc(-c2ccc(C(F)(F)F)cn2)n1)C1CC1 [Example 196, (2R)-2-cyclopropyl-2-[({2-[5-(trifluoromethyl)pyridin-2-yl]pyrimidin-4-yl}methyl)amino]ethanol]
1.63	C=C(c1ccc(F)cc1)c1ccc(F)c(CN[C@@H](CO)C(C)C)n1 [Example 125, (2R)-2-[({3-fluoro-6-[1-(4-fluorophenyl)ethenyl]pyridin-2-yl}methyl)amino]-3-methylbutan-1-ol]
8.28	CC(C)[C@H](CO)NCc1nc(C2CCC3(CC2)OCCO3)ccc1F [Example 214, (2R)-2-({[6-(1,4-dioxaspiro[4.5]dec-8-yl)-3-fluoropyridin-2-yl]methyl}amino)-3-methylbutan-1-ol]
> 20	OCC1(CNCc2ccnc(-c3ccc(C(F)(F)F)cc3)n2)CCOCC1 [Example 161]
0.39	OCC1(NCc2cccc(-c3ccc(F)c(Cl)c3)n2)CCCC1 [Example 266, [1-({[6-(3-chloro-4-fluorophenyl)pyridin-2-yl]methyl}amino)cyclopentyl]methanol]
5.67	CC(C)[C@H](CO)NCc1nc(C2CCCC3(C2)OCCO3)ccc1F (stereo partly drawn) [Example 215, (2R)-2-({[6-(1,4-dioxaspiro[4.5]dec-7-yl)-3-fluoropyridin-2-yl]methyl}amino)-3-methylbutan-1-ol]
0.79	CC(C)[C@H](CO)NCc1nc(-c2cc(C(F)(F)F)nn2C)ccc1F [Example 291, (2R)-2-[({3-fluoro-6-[1-methyl-3-(trifluoromethyl)-1H-pyrazol-5-yl]pyridin-2-yl}methyl)amino]-3-methylbutan-1-ol]
0.26	CC(C)[C@H](CO)NCc1nc(-c2cc3ccccc3[nH]2)ccc1F [Example 274, (2R)-2-({[3-fluoro-6-(1H-indol-2-yl)pyridin-2-yl]methyl}amino)-3-methylbutan-1-ol]
7.3	CC(C)C[C@H](CO)NCc1ccnc(-c2ccc(C(F)(F)F)cc2)n1 [Example 142, (2R)-4-methyl-2-[({2-[4-(trifluoromethyl)phenyl]pyrimidin-4-yl}methyl)amino]pentan-1-ol]
> 20	CC(C)(O)[C@H](CO)NCc1ccnc(-c2ccc(C(F)(F)F)cn2)n1 [Example 197, (2S)-3-methyl-2-[({2-[5-(trifluoromethyl)pyridin-2-yl]pyrimidin-4-yl}methyl)amino]butane-1.3-diol]
0.37	CC(C)[C@H](CO)NCc1nc(C#Cc2ccc(F)c(F)c2)ccc1F [Example 239, (2R)-2-[({6-[(3,4-difluorophenyl)ethynyl]-3-fluoropyridin-2-yl}methyl)amino]-3-methylbutan-1-ol]
0.31	CC(C)[C@H](CO)NCc1nc(C2CCC(C(F)(F)F)CC2)ccc1F (stereo partly drawn) [Example 216, (2R)-2-[({3-fluoro-6-[4-(trifluoromethyl)cyclohexyl]pyridin-2-yl}methyl)amino]-3-methylbutan-1-ol]
17.6	OCC1(CNCc2ccnc(-c3ccc(C(F)(F)F)cc3)n2)CCCCC1 [Example 159, (1-{[({2-[4-(trifluoromethyl)phenyl]pyrimidin-4-yl}methyl)amino]methyl}cyclohexyl)methanol]
1.03	CC1CCC(c2ccc(F)c(CN[C@@H](CO)C(C)C)n2)CC1 (stereo partly drawn) [Example 200, (2R)-2-({[3-fluoro-6-(4-methylcyclohexyl)pyridin-2-yl]methyl}amino)-3-methylbutan-1-ol]
0.37	CC(C)[C@H](CO)NCc1nc(-c2cc(C(F)(F)F)ccc2F)ccc1F [Example 282, (2R)-2-[({3-fluoro-6-[2-fluoro-5-(trifluoromethyl)phenyl]pyridin-2-yl}methyl)amino]-3-methylbutan-1-ol]
1.53	CC(C)[C@H](CO)NCc1nc(N2CCC(F)(F)CC2)ncc1F [Example 231, (2R)-2-({[2-(4,4-difluoropiperidin-1-yl)-5-fluoropyrimidin-4-yl]methyl}amino)-3-methylbutan-1-ol]
0.99	CC(C)[C@H](CO)NCc1cccc(C#Cc2ccccc2F)n1 [Example 285, (2R)-2-[({6-[(2-fluorophenyl)ethynyl]pyridin-2-yl}methyl)amino]-3-methylbutan-1-ol]
1.44	CC(C)[C@H](CO)NCc1nc(-c2ccc3c(ccn3C)c2)ccc1F [Example 248, (2R)-2-({[3-fluoro-6-(1-methyl-1H-indol-5-yl)pyridin-2-yl]methyl}amino)-3-methylbutan-1-ol]
0.48	CC(C)[C@H](CO)NCc1nc(C2CCCC2)ccc1F [Example 220, (2R)-2-{[(6-cyclopentyl-3-fluoropyridin-2-yl)methyl]amino}-3-methylbutan-1-ol]
0.08	CC(C)[C@H](CO)NCc1nc(C2=CCC(C(F)(F)F)CC2)ccc1F (stereo partly drawn) [Example 223, (2R)-2-[({3-fluoro-6-[4-(trifluoromethyl)cyclohex-1-en-1-yl]pyridin-2-yl}methyl)amino]-3-methylbutan-1-ol]
3.05	CC[C@H](CO)NCc1ccnc(-c2ccc(C(F)(F)F)cc2)n1 [Example 138, (2R)-2-[({2-[4-(trifluoromethyl)phenyl]pyrimidin-4-yl}methyl)amino]butan-1-ol]
0.16	CC(C)[C@H](CO)NCc1nc(-c2ccc(F)c(F)c2F)ccc1F [Example 245, (2R)-2-({[3-fluoro-6-(2,3,4-trifluorophenyl)pyridin-2-yl]methyl}amino)-3-methylbutan-1-ol]

Continued, molecule first:

Compound	IC50 [µM]
OC[C@H](NCc1nc(-c2ccc(OCC(F)(F)F)nc2)ccc1F)C1CC1 [Example 76, (2R)-2-cyclopropyl-2-({[5-fluoro-6′-(2,2,2-trifluoroethoxy)-2,3′-bipyridin-6-yl]methyl}amino)ethanol]	1.6
CC(C)[C@H](CO)NCc1nc(-c2cccc(S(=O)(=O)N(C)C(C)(C)C)c2)ccc1F [Example 61, N-tert-butyl-3-[5-fluoro-6-({[(2R)-1-hydroxy-3-methylbutan-2-yl]amino}methyl)pyridin-2-yl]-N-methylbenzenesulfonamide]	0.19
CC(C)[C@@H](CO)NCc1nc(-c2ccc(C(F)(F)F)cc2)ccc1F [Example 30, (2S)-2-[({3-fluoro-6-[4-(trifluoromethyl)phenyl]pyridin-2-yl}methyl)amino]-3-methylbutan-1-ol]	> 20
CC(C)Oc1ccc(-c2ccc(F)c(CN[C@@H](CO)C(C)C)n2)cn1 [Example 57, (2R)-2-({[5-fluoro-6′-(propan-2-yloxy)-2,3′-bipyridin-6-yl]methyl}amino)-3-methylbutan-1-ol]	0.5
CC(C)[C@H](CO)NCc1nc(-c2cccc(C(=O)N(C)Cc3ccccc3)c2)ccc1F [Example 58, N-benzyl-3-[5-fluoro-6-({[(2R)-1-hydroxy-3-methylbutan-2-yl]amino}methyl)pyridin-2-yl]-N-methylbenzamide]	1.49
Cc1ccc(S(=O)(=O)N(C)C)cc1-c1ccc(F)c(CN[C@@H](CO)C(C)C)n1 [Example 50, 3-[5-fluoro-6-({[(2R)-1-hydroxy-3-methylbutan-2-yl]amino}methyl)pyridin-2-yl]-N,N,4-trimethylbenzenesulfonamide]	1.77
CC(C)[C@H](CO)NCc1nc(N2Cc3cccc(F)c3C2)ccc1F [Example 94, (2R)-2-({[3-fluoro-6-(4-fluoro-1,3-dihydro-2H-isoindol-2-yl)pyridin-2-yl]methyl}amino)-3-methylbutan-1-ol]	0.12
CC(C)[C@H](CO)NCc1nc(N2CCCC(C(F)(F)F)C2)ccc1F (stereo partly drawn) [Example 65, (2R)-2-[({3-fluoro-6-[3-(trifluoromethyl)piperidin-1-yl]pyridin-2-yl}methyl)amino]-3-methylbutan-1-ol]	0.32
CC(C)(CO)CNCc1cccc(-c2ccc(C(F)(F)F)cc2)n1 [Example 8, 2,2-dimethyl-3-[({6-[4-(trifluoromethyl)phenyl]pyridin-2-yl}methyl)amino]propan-1-ol]	2.6
CC(C)[C@H](NCc1nc(-c2ccc(C(F)(F)F)nc2)ccc1F)C(N)=O [Example 119, (S)-2-((5-fluoro-6′-(trifluoromethyl)-2,3′-bipyridin-6-yl)methylamino)-3-methylbutanamide]	> 20
CC(C)[C@H](CO)NCc1nc(-c2cccc(S(=O)(=O)N3CCOCC3)c2)ccc1F [Example 54, (2R)-2-[({3-fluoro-6-[3-(morpholin-4-ylsulfonyl)phenyl]pyridin-2-yl}methyl)amino]-3-methylbutan-1-ol]	0.76
CC(C)[C@H](CO)NCc1ccnc(-c2ccc(Cl)cc2)n1 [Example 34, (2R)-2-({[2-(4-chlorophenyl)pyrimidin-4-yl]methyl}amino)-3-methylbutan-1-ol]	1.39
CC(C)[C@H](CO)NCc1nc(-c2cccc(S(=O)(=O)N3CCCCC3)c2)ccc1F [Example 48, (2R)-2-[({3-fluoro-6-[3-(piperidin-1-ylsulfonyl)phenyl]pyridin-2-yl}methyl)amino]-3-methylbutan-1-ol]	0.33
CC(C)[C@H](CO)NCc1nc(-c2cccc(C(=O)N(C(C)C)C(C)C)c2)ccc1F [Example 56, 3-[5-fluoro-6-({[(2R)-1-hydroxy-3-methylbutan-2-yl]amino}methyl)pyridin-2-yl]-N,N-diisopropylbenzamide]	1.78
CC(C)[C@H](CO)NCc1nc(-c2ccc(Cl)nc2)ccc1F [Example 38, (2R)-2-{[(6′-chloro-5-fluoro-2,3′-bipyridin-6-yl)methyl]amino}-3-methylbutan-1-ol]	2.85
O[C@@H]1CCCC[C@@H]1NCc1nc(-c2ccc(C(F)(F)F)nc2)ccc1F [Example 123, (1R,2S)-2-({[5-fluoro-6′-(trifluoromethyl)-2,3′-bipyridin-6-yl]methyl}amino)cyclohexanol]	8.55
